# Patent US20060100264A1, “3,3'-Diindolylmethane immune activating compositions” (priority 2004, published 2006)
# What was measured:
# [1] = tested on: IL-12; assay: Serum IL-12 by ELISA in mice after DIM; assay type: in vivo; settings: 30 μg/kg DIM orally
# Method: We firstly investigated the effect of unsubstituted DIM on the production of IL-6, G-CSF, IL-12, TNF-α and IFNγ. A groups of 3 mice was given 30 μg/kg of unsubstituted DIM orally and then sacrificed at 1, 3, 5, 8, and 24 h after drug challenge. Serum was collected, pooled, and assayed for IL-6, G-CSF, IL-12 and TNF-α by ELISA. […] DIM produced an increase in circulating levels of G-CSF and TNF-α with the 3 h time point being maximal. […] DIM also stimulated IL-12 and kinetics were slightly different since the increased levels were sustained for at least 24 h.
# [2] = tested on: GAS element; assay: Electrophoretic gel mobility shift assay, STAT1 binding to GAS element; assay type: cell-based, human; settings: DIM pretreatment for various times, IFNγ 30 min
# Method: An electrophoretic gel mobility shift assay was used to verify that the phosphorylated STAT1 was effectively activated to a dimer that could bind to the GAS element. The ^32P-labeled DNA probe containing a GAS sequence was incubated with nuclear extracts from cells pretreated with DIM for various times as indicated, and with IFNγ for 30 min. […] When samples were incubated with an antibody specific to STAT1, the band was super-shifted, confirming the identity of the protein binding to the labeled GAS probe.
# [3] = tested on: 4GAS-Luc reporter (four repeats of the consensus GAS element); assay: 4GAS-Luc luciferase reporter in transiently transfected MCF-7 cells; assay type: cell-based, human; settings: DIM 50 μM, IFNγ concentration dependent, maximum
# Method: In a further experiment to examine whether the inducing effects of DIM are at the transcriptional level, the effect of DIM on activities of two luciferase reporter constructs, OAS-Luc (12) and 4GAS-Luc (13) was examined. OAS-Luc contains the promoter and 5′-flanking region (−972) of p69-OAS and GAS-Luc contains four repeats of the consensus GAS element. MCF-7 cells transiently transfected with these reporter constructs were treated with IFNγ, DIM, or a combination of both for 24 h. […] IFNγ induced transcriptional activity of this reporter in a concentration dependent manner to a maximum of about 1.8 fold, which is less than the response of the endogenous gene of about 5.0 fold. In marked contrast to the maximum effects of combined treatments of the inducers on endogenous gene expression (nearly 12-fold increase compared to vehicle treated cells), the reporter gene construct responded with less than a 3-fold increase over the controls.
# Thus, treatment with DIM (50 μM) by itself again produced a 2 to 3-fold increase in activity of this reporter. IFNγ treatments, however, produced a robust concentration dependent increase in reporter activity to approximately 40-fold induction compared to vehicle treated controls. […]
structure (smiles),measurement,setting,value
"c1ccc2c(Cc3c[nH]c4ccccc34)c[nH]c2c1 [DIM, 3,3′-Diindolylmethane]",Time for which increased IL-12 levels were sustained,[1],at least 24 h
same,Band-shift of 32P-labeled GAS probe with nuclear extracts,[2],did not produce a shifted band
same,Induction of 4GAS-Luc reporter activity compared to vehicle treated controls,[3],2 to 3 fold
